US10920265B2, “Compounds and methods for detection of enzymes that remove methyl succinyl groups from epsilon-amino lysine moieties” (Enzo Life Sciences, Inc., priority 2011, dated 2021)
*: point of attachment. AMC = Cc1cc(=O)oc2cc(N*)ccc12

Tests used:
Assay in all cases: HDAC activity with fluorogenic lysyl substrates
Assay type in all cases: biochemical
Settings in all cases: 50 μM substrate
HDAC9 = target: T1, HDAC9 (Homo sapiens, UniProt Q9UKV0)
T1 construct: made in house; host or cells: E. coli
T1 sequence (Q9UKV0 644-1066 isoform Q9UKV0-5): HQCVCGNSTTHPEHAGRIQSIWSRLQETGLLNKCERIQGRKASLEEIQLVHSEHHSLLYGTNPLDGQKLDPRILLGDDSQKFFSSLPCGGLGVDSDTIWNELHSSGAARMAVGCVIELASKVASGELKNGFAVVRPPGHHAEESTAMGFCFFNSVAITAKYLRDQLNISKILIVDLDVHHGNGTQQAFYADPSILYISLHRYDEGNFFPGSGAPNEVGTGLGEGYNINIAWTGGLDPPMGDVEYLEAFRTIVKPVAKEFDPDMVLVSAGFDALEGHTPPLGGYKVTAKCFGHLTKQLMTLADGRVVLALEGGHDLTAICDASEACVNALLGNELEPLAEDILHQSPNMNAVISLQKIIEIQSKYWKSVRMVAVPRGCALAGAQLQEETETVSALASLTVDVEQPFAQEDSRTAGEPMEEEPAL
Procedure, shortened: (§1)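 Recombinant human HDACs, sirtuins, HDAC3/NCOR1 complex and HeLa nuclear extract were run at 37 °C under SIRT1 fluorometric kit conditions. Ac-Arg-His-Lys-Lys(Ac)-AMC or other acetylated, succinylated or trifluoroacetylated lysyl-AMC substrates, including Ac-Lys(Succ.)-AMC, were used, with trypsin developer releasing AMC fluorescence.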

HDAC2 = target: T2, HDAC2 (Homo sapiens, UniProt Q92769)
T2 construct: purchased ENZO Life Sciences BML-SE500
T2 sequence (Q92769 whole entry): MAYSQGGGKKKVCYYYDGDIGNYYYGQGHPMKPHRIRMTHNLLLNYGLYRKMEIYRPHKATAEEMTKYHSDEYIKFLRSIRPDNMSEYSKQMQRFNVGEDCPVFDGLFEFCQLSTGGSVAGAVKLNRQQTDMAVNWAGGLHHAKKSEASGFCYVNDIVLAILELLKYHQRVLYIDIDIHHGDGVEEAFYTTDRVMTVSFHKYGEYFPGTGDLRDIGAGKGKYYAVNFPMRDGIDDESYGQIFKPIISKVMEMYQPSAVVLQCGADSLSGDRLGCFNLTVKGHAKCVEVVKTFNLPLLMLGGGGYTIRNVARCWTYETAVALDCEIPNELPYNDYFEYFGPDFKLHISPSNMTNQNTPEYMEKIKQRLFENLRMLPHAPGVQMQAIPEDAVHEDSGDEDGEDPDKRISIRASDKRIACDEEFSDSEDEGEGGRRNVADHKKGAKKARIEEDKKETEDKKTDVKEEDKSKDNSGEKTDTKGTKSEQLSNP
Procedure, shortened: as §1

HDAC7 = target: T3, HDAC7 (Homo sapiens, UniProt Q8WUI4)
T3 construct: made in house; host or cells: E. coli
T3 sequence (Q8WUI4 483-903): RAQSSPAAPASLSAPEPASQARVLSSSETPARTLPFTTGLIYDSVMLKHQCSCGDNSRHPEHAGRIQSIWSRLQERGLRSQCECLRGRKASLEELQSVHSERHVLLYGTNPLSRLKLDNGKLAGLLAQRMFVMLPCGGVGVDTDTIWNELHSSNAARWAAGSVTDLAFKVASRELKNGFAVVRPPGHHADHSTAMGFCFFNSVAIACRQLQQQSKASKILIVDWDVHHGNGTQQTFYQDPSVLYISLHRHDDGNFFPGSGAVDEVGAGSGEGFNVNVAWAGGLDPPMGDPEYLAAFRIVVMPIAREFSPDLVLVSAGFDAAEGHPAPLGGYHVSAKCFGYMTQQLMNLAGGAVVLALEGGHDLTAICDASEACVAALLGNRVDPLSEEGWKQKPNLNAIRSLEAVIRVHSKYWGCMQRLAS
Procedure, shortened: as §1

HDAC3/NCOR1 Complex = target: T4, HDAC3/NCOR1 Complex (Homo sapiens, UniProt O15379)
T4 construct: purchased ENZO Life Sciences BML-SE515
T4 sequence (O15379 whole entry): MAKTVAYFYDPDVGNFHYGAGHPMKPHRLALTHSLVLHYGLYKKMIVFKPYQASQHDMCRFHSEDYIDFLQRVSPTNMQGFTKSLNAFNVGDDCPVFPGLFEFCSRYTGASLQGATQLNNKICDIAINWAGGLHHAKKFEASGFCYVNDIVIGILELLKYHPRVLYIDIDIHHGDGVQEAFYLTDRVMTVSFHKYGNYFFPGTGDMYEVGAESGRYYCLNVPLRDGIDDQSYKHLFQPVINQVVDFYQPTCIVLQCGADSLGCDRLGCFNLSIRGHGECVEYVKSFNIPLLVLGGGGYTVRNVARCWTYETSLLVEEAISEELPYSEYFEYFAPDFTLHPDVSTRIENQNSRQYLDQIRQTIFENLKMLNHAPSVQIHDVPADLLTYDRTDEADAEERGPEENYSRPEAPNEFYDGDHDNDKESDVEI
T4 sequence (O75376 395-489 partner limits assumed): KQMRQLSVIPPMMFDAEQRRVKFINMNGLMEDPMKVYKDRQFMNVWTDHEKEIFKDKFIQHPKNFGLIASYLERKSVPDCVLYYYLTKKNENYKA
Procedure, shortened: as §1

HDAC11 = target: T5, HDAC11 (Homo sapiens, UniProt Q96DB2)
T5 construct: purchased ENZO Life Sciences BML-SE560
T5 sequence (Q96DB2 1-347): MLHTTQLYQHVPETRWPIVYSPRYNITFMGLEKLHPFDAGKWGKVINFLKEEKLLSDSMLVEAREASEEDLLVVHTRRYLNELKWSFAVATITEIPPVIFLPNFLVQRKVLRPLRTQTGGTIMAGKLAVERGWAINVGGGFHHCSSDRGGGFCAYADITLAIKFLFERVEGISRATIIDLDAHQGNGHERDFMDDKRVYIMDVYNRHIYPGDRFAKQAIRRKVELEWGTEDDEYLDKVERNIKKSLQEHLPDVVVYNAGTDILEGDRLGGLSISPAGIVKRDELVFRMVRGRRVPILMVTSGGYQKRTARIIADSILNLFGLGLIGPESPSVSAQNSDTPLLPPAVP
Procedure, shortened: as §1

| Molecule | Activity (HDAC9) | Activity (HDAC2) | Activity (pmol/min/μg) (HDAC7) | Activity (HDAC3/NCOR1 Complex) | Activity (pmol/min/μg) (HDAC11) | Activity (pmol/min/μg) (HDAC3/NCOR1 Complex) | Activity (pmol/min/μg) (HDAC9) | Activity (HDAC11) |
| --- | --- | --- | --- | --- | --- | --- | --- | --- |
| COC(=O)CCC(=O)NCCCC[C@H](NC(C)=O)C(=O)Nc1ccc2c(C)cc(=O)oc2c1 [Compound 5, N—(N^α-acetyl-L-Lysine(N^ε-methyl succinyl))-AMC] | 0.135 pmol/min/µg | 31.330 pmol/min/µg | Undetectable | 53.750 pmol/min/µg |  |  |  |  |
| Ac-Arg-His-Lys-Lys(ε-acetyl)-AMC (Ac-RHKK(Ac)-{AMC}; SMILES CC(=O)NCCCC[C@H](NC(=O)[C@H](CCCCN)NC(=O)[C@H](Cc1c[nH]cn1)NC(=O)[C@H](CCCNC(=N)N)NC(C)=O)C(=O)Nc1ccc2c(C)cc(=O)oc2c1) [Ac-RHKK(Ac)-AMC, p53 peptide fluorogenic deacetylase substrate, Cat. # BML-KI177, reference compound] |  |  |  |  | Ac-RHKK(Ac)-AMC/6.09 pmol/min/μg | Ac-RHKK(Ac)-AMC/687 pmol/min/μg |  |  |
| CCCCCCCCCCCCCC(=O)NCCCC[C@H](NC(C)=O)C(=O)Nc1ccc2c(C)cc(=O)oc2c1 [Compound 4, N—(N^α-acetyl-L-Lysine(N^ε-myristoyl))-AMC] |  | 83.05 pmol/min/µg | Undetectable | 79.023 pmol/min/µg |  |  | Undetectable |  |
| CC(=O)NCCCCC(NC(C)=O)C(=O)Nc1ccc2c(C)cc(=O)oc2c1 (centres unmarked) [Ac-Lys(Ac.)-AMC, Ac-Lys(ε-acetyl)-AMC, reference compound] | 0.027 pmol/min/µg | 554 pmol/min/µg | Undetectable | 668 pmol/min/µg |  |  |  | 4.15 pmol/min/µg |
| CC(=O)N[C@@H](CCCCNC(=O)CCC(=O)O)C(=O)Nc1ccc2c(C)cc(=O)oc2c1 [Compound 1, N—(N^α-acetyl-L-Lysine(N^ε-succinyl))-AMC] |  | 0.28 pmol/min/µg | Undetectable | 0.40 pmol/min/µg | Undetectable |  | Undetectable |  |
